Measurements from patent US20250230193A1, “CYCLIC COMPOUND HAVING SELECTIVE KRAS INHIBITORY EFFECT ON HRAS AND NRAS” (CHUGAI SEIYAKU KABUSHIKI KAISHA, priority 2022, published 2025).

How the values were obtained:
[1] = target: GDP-bound NRAS wild-type protein (Homo sapiens, UniProt P01111); assay: Binding to NRAS by surface plasmon resonance (SPR), Single Cycle Kinetics; conditions: KD ratio, GDP-bound NRAS wild-type vs GDP-bound KRAS wild-type, SPR
[2] = target: GDP-bound HRAS wild-type protein (Homo sapiens, UniProt P01112); assay: Binding to HRAS by surface plasmon resonance (SPR), Single Cycle Kinetics; conditions: KD ratio, GDP-bound HRAS wild-type vs GDP-bound KRAS wild-type, SPR
GDP-bound HRAS wild-type protein, sequence (P01112 whole entry): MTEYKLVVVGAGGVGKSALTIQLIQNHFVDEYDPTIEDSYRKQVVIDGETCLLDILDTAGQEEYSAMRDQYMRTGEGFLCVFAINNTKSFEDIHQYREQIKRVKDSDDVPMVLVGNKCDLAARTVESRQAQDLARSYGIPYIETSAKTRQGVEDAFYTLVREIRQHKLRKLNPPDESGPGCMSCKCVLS

GDP-bound NRAS wild-type protein, sequence (P01111 whole entry): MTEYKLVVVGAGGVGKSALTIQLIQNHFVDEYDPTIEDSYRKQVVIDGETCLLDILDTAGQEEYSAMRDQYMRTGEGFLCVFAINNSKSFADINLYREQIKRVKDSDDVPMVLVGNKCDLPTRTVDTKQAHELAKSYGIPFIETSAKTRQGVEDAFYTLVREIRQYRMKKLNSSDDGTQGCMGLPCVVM

## CCCN(C)C(=O)[C@@H]1CC(=O)N(C)[C@@H](COC)C(=O)N[C@@H]([C@@H](C)CC)C(=O)N(C)CC(=O)N(C)[C@H]2C/C=C\CCN(C2=O)[C@@H](Cc2ccc(C(F)(F)F)cc2)C(=O)N(C)CC(=O)N[C@@H](CCc2cc(F)c(Cl)c(F)c2)C(=O)N2C[C@H](OCC)C[C@H]2C(=O)NC2(CC(C)(C)C2)C(=O)N(C)[C@@H](C2CCCC2)C(=O)N1C [PP1763]
[1]
  NRAS/KRAS (ratio of KD value for NRAS to KD value for KRAS): A (a compound having 10 or more and less than 20 is denoted as A)
[2]
  HRAS/KRAS (ratio of KD value for HRAS to KD value for KRAS): A (a compound having 10 or more and less than 20 is denoted as A)

## CCCOC[C@H]1C(=O)N[C@@H]([C@@H](C)CC)C(=O)N(C)CC(=O)N(C)[C@H]2C/C=C\CCN(C2=O)[C@@H](Cc2ccc(C(F)(F)F)cc2)C(=O)N(C)CC(=O)N[C@@H](CCc2cc(F)c(Cl)c(F)c2)C(=O)N2C[C@H](OCC)C[C@H]2C(=O)NC2(CC(C)(C)C2)C(=O)N(C)[C@@H](C2CCCC2)C(=O)N(C)[C@H](C(=O)N(C)C)CC(=O)N1C [PP1764]
[1]
  NRAS/KRAS (ratio of KD value for NRAS to KD value for KRAS): AA (a compound having 20 or more is denoted as AA)
[2]
  HRAS/KRAS (ratio of KD value for HRAS to KD value for KRAS): A (a compound having 10 or more and less than 20 is denoted as A)

## CCO[C@@H]1C[C@H]2C(=O)NC3(CCC3)C(=O)N(C)[C@@H](C3CCCC3)C(=O)N(C)[C@H](C(=O)N(C)C)CC(=O)N(CC)[C@@H](CC(C)C)C(=O)N[C@@H]([C@@H](C)CC)C(=O)N(C)CC(=O)N(C)[C@H]3C/C=C\CCN(C3=O)[C@@H](Cc3ccc(C(F)(F)F)cc3)C(=O)N(C)CC(=O)N[C@@H](CCc3cc(F)c(C(F)(F)F)c(F)c3)C(=O)N2C1 [PP1765]
[1]
  NRAS/KRAS (ratio of KD value for NRAS to KD value for KRAS): A (a compound having 10 or more and less than 20 is denoted as A)
[2]
  HRAS/KRAS (ratio of KD value for HRAS to KD value for KRAS): A (a compound having 10 or more and less than 20 is denoted as A)

## CCC[C@H]1C(=O)N[C@@H]([C@@H](C)CC)C(=O)N(CCC)CC(=O)N(C)[C@H]2C/C=C\CCN(C2=O)[C@@H](Cc2ccc(C(F)(F)F)cc2)C(=O)N(C)CC(=O)N[C@@H](CCc2cc(F)c(C(F)(F)F)c(F)c2)C(=O)N2C[C@H](OCC)C[C@H]2C(=O)NC2(CCC2)C(=O)N(C)[C@@H](C2CCCC2)C(=O)N(C)[C@H](C(=O)N(C)C)CC(=O)N1C [PP1767]
[1]
  NRAS/KRAS (ratio of KD value for NRAS to KD value for KRAS): A (a compound having 10 or more and less than 20 is denoted as A)
[2]
  HRAS/KRAS (ratio of KD value for HRAS to KD value for KRAS): B (a compound having 3 or more and less than 10 is denoted as B)

## CCO[C@@H]1C[C@H]2C(=O)NC3(CC(C)(C)C3)C(=O)N(C)[C@@H](C3CCCC3)C(=O)N(CC)[C@H](C(=O)N(C)C)CC(=O)N(C)[C@@H](CC)C(=O)N[C@@H]([C@@H](C)CC)C(=O)N(C)CC(=O)N(C)[C@H]3C/C=C\CCN(C3=O)[C@@H](Cc3ccc(C(F)(F)F)cc3)C(=O)N(C)CC(=O)N[C@@H](CCc3cc(F)c(C(F)(F)F)c(F)c3)C(=O)N2C1 [PP1768]
[1]
  NRAS/KRAS (ratio of KD value for NRAS to KD value for KRAS): A (a compound having 10 or more and less than 20 is denoted as A)
[2]
  HRAS/KRAS (ratio of KD value for HRAS to KD value for KRAS): A (a compound having 10 or more and less than 20 is denoted as A)

## CCC[C@H]1C(=O)N[C@@H]([C@@H](C)CC)C(=O)N(C)CC(=O)N(C)[C@H]2C/C=C\CCN(C2=O)[C@@H](Cc2ccc(C(F)(F)F)cc2)C(=O)N(C)CC(=O)N[C@@H](CCc2cc(F)c(C(F)(F)F)c(F)c2)C(=O)N2C[C@H](OCC)C[C@H]2C(=O)NC2(CCC2)C(=O)N(C)[C@@H](C2CCCC2)C(=O)N(CCC)[C@H](C(=O)N(C)C)CC(=O)N1C [PP1769]
[1]
  NRAS/KRAS (ratio of KD value for NRAS to KD value for KRAS): A (a compound having 10 or more and less than 20 is denoted as A)
[2]
  HRAS/KRAS (ratio of KD value for HRAS to KD value for KRAS): A (a compound having 10 or more and less than 20 is denoted as A)

## CCO[C@@H]1C[C@H]2C(=O)NC3(CC(C)(C)C3)C(=O)N(C)[C@@H](C3CCCC3)C(=O)N(C)[C@H](C(=O)N(C)CC)CC(=O)N(C)[C@@H](CC(C)C)C(=O)N[C@@H]([C@@H](C)CC)C(=O)NCC(=O)N(C)[C@H]3C/C=C\CCN(C3=O)[C@@H](Cc3ccc(C(F)(F)F)cc3)C(=O)N(C)CC(=O)N[C@@H](CCc3cc(F)c(C(F)(F)F)c(F)c3)C(=O)N2C1 [PP1771]
[1]
  NRAS/KRAS (ratio of KD value for NRAS to KD value for KRAS): A (a compound having 10 or more and less than 20 is denoted as A)
[2]
  HRAS/KRAS (ratio of KD value for HRAS to KD value for KRAS): A (a compound having 10 or more and less than 20 is denoted as A)

## CCO[C@@H]1C[C@H]2C(=O)NC3(CC(C)(C)C3)C(=O)N(C)[C@@H](C3CCCC3)C(=O)N(C)[C@H](C(=O)N(C)C)CC(=O)N(CC)[C@@H](CC(C)C)C(=O)N[C@@H]([C@@H](C)CC)C(=O)NCC(=O)N(C)[C@H]3C/C=C\CCN(C3=O)[C@@H](Cc3ccc(C(F)(F)F)cc3)C(=O)N(C)CC(=O)N[C@@H](CCc3cc(F)c(C(F)(F)F)c(F)c3)C(=O)N2C1 [PP1772]
[1]
  NRAS/KRAS (ratio of KD value for NRAS to KD value for KRAS): B (a compound having 3 or more and less than 10 is denoted as B)
[2]
  HRAS/KRAS (ratio of KD value for HRAS to KD value for KRAS): B (a compound having 3 or more and less than 10 is denoted as B)

## CCO[C@@H]1C[C@H]2C(=O)NC3(CC(C)(C)C3)C(=O)N(C)[C@@H](C3CCCC3)C(=O)N(CC)[C@H](C(=O)N(C)C)CC(=O)N(C)[C@@H](CC(C)C)C(=O)N[C@@H]([C@@H](C)CC)C(=O)NCC(=O)N(C)[C@H]3C/C=C\CCN(C3=O)[C@@H](Cc3ccc(C(F)(F)F)cc3)C(=O)N(C)CC(=O)N[C@@H](CCc3cc(F)c(C(F)(F)F)c(F)c3)C(=O)N2C1 [PP1773]
[1]
  NRAS/KRAS (ratio of KD value for NRAS to KD value for KRAS): A (a compound having 10 or more and less than 20 is denoted as A)
[2]
  HRAS/KRAS (ratio of KD value for HRAS to KD value for KRAS): A (a compound having 10 or more and less than 20 is denoted as A)

## CC[C@H](C)[C@@H]1NC(=O)[C@H](CC(C)C)N(C)C(=O)C[C@@H](C(=O)N(C)C)N(C)C(=O)[C@H](C2CCCC2)N(C)C(=O)C2(CC(C)(C)C2)NC(=O)CN(C)C(=O)[C@H](CCc2cc(F)c(C(F)(F)F)c(F)c2)NC(=O)CN(C)C(=O)[C@H](Cc2ccc(C(F)(F)F)cc2)N2CC/C=C\C[C@@H](C2=O)N(C)C(=O)CN(C)C1=O [PP1776]
[1]
  NRAS/KRAS (ratio of KD value for NRAS to KD value for KRAS): A (a compound having 10 or more and less than 20 is denoted as A)
[2]
  HRAS/KRAS (ratio of KD value for HRAS to KD value for KRAS): A (a compound having 10 or more and less than 20 is denoted as A)

## CCC[C@H]1C(=O)N[C@@H]([C@@H](C)CC)C(=O)N(C)CC(=O)N(C)[C@H]2C/C=C\CCN(C2=O)[C@@H](Cc2ccc(C(F)(F)F)cc2)C(=O)N(C)CC(=O)N[C@@H](CCc2cc(F)c(C(F)(F)F)c(F)c2)C(=O)N(CC)CC(=O)NC2(CC(C)(C)C2)C(=O)N(C)[C@@H](C2CCCC2)C(=O)N(C)[C@H](C(=O)N(C)C)CC(=O)N1C [PP1777]
[1]
  NRAS/KRAS (ratio of KD value for NRAS to KD value for KRAS): A (a compound having 10 or more and less than 20 is denoted as A)
[2]
  HRAS/KRAS (ratio of KD value for HRAS to KD value for KRAS): B (a compound having 3 or more and less than 10 is denoted as B)

## CCO[C@@H]1C[C@H]2C(=O)N(C)C3(CCC3)C(=O)N(C)[C@@H](C3CCCC3)C(=O)N(C)[C@H](C(=O)N(C)C)CC(=O)N(C)[C@@H](CC)C(=O)N[C@@H]([C@@H](C)CC)C(=O)N(C)CC(=O)N(C)[C@H]3C/C=C\CCN(C3=O)[C@@H](Cc3ccc(C(F)(F)F)cc3)C(=O)N(C)CC(=O)N[C@@H](CCc3cc(F)c(C(F)(F)F)c(F)c3)C(=O)N2C1 [PP1779]
[1]
  NRAS/KRAS (ratio of KD value for NRAS to KD value for KRAS): A (a compound having 10 or more and less than 20 is denoted as A)
[2]
  HRAS/KRAS (ratio of KD value for HRAS to KD value for KRAS): B (a compound having 3 or more and less than 10 is denoted as B)

## CC[C@H](C)[C@@H]1NC(=O)[C@H](CC)N(C)C(=O)C[C@@H](C(=O)N(C)C)N(C)C(=O)[C@H](C2CCCC2)N(C)C(=O)C2(CCC2)N(C)C(=O)[C@@H]2CCCN2C(=O)[C@H](CCc2cc(F)c(C(F)(F)F)c(F)c2)NC(=O)CN(C)C(=O)[C@H](Cc2ccc(C(F)(F)F)cc2)N2CC/C=C\C[C@@H](C2=O)N(C)C(=O)CN(C)C1=O [PP1780]
[1]
  NRAS/KRAS (ratio of KD value for NRAS to KD value for KRAS): A (a compound having 10 or more and less than 20 is denoted as A)
[2]
  HRAS/KRAS (ratio of KD value for HRAS to KD value for KRAS): A (a compound having 10 or more and less than 20 is denoted as A)

## CCO[C@@H]1C[C@H]2C(=O)N(C)C3(CCC3)C(=O)N(C)[C@@H](C3CCCC3)C(=O)N(C)[C@H](C(=O)N(C)C)CC(=O)N(C)[C@@H](CC)C(=O)N[C@@H]([C@@H](C)CC)C(=O)N(C)CC(=O)N(C)[C@H]3C/C=C\CCN(C3=O)[C@@H](Cc3ccc(C)cc3)C(=O)N(C)CC(=O)N[C@@H](CCc3cc(F)c(C(F)(F)F)c(F)c3)C(=O)N2C1 [PP1781]
[1]
  NRAS/KRAS (ratio of KD value for NRAS to KD value for KRAS): A (a compound having 10 or more and less than 20 is denoted as A)
[2]
  HRAS/KRAS (ratio of KD value for HRAS to KD value for KRAS): B (a compound having 3 or more and less than 10 is denoted as B)

## CC[C@H](C)[C@@H]1NC(=O)[C@H](CC)N(C)C(=O)C[C@@H](C(=O)N(C)C)N(C)C(=O)[C@H](C2CCCC2)N(C)C(=O)C2(CCC2)N(C)C(=O)[C@@H]2CCCN2C(=O)[C@H](CCc2cc(F)c(C(F)(F)F)c(F)c2)NC(=O)CN(C)C(=O)[C@H](Cc2ccc(C)cc2)N2CC/C=C\C[C@@H](C2=O)N(C)C(=O)CN(C)C1=O [PP1782]
[1]
  NRAS/KRAS (ratio of KD value for NRAS to KD value for KRAS): A (a compound having 10 or more and less than 20 is denoted as A)
[2]
  HRAS/KRAS (ratio of KD value for HRAS to KD value for KRAS): B (a compound having 3 or more and less than 10 is denoted as B)

## CCO[C@@H]1C[C@H]2C(=O)N(C)C3(CCC3)C(=O)N(C)[C@@H](C3CCCC3)C(=O)N(C)[C@H](C(=O)N(C)C)CC(=O)N(C)[C@@H](C3CC3)C(=O)N[C@@H]([C@@H](C)CC)C(=O)N(C)CC(=O)N(C)[C@H]3C/C=C\CCN(C3=O)[C@@H](Cc3ccc(C)cc3)C(=O)N(C)CC(=O)N[C@@H](CCc3cc(F)c(C(F)(F)F)c(F)c3)C(=O)N2C1 [PP1783]
[1]
  NRAS/KRAS (ratio of KD value for NRAS to KD value for KRAS): A (a compound having 10 or more and less than 20 is denoted as A)
[2]
  HRAS/KRAS (ratio of KD value for HRAS to KD value for KRAS): B (a compound having 3 or more and less than 10 is denoted as B)

## CC[C@H](C)[C@@H]1NC(=O)[C@H](C2CC2)N(C)C(=O)C[C@@H](C(=O)N(C)C)N(C)C(=O)[C@H](C2CCCC2)N(C)C(=O)C2(CCC2)N(C)C(=O)[C@@H]2CCCN2C(=O)[C@H](CCc2cc(F)c(C(F)(F)F)c(F)c2)NC(=O)CN(C)C(=O)[C@H](Cc2ccc(C)cc2)N2CC/C=C\C[C@@H](C2=O)N(C)C(=O)CN(C)C1=O [PP1784]
[1]
  NRAS/KRAS (ratio of KD value for NRAS to KD value for KRAS): A (a compound having 10 or more and less than 20 is denoted as A)
[2]
  HRAS/KRAS (ratio of KD value for HRAS to KD value for KRAS): B (a compound having 3 or more and less than 10 is denoted as B)
